The subject of this experiment is Wnt activity (Wnt-responsive human Sp5 promoter, TCF/LEF binding sites) in SW480 colon carcinoma cells. In words: Wnt activity screening assay: Sp5-Luc luciferase reporter gene in SW480 cells. Format: cell-based. As to conditions: for EC50: 10-point dose-response from 10 μM, incubated overnight; for inhibition at 10 µM: given for EC50 of >10 μM, read-out: percent inhibition at 10 μM. The text has this:
The screening assay for Wnt activity is described as follows. Reporter cell lines can be generated by stably transducing cancer cell lines (e.g., colon cancer) or primary cells (e.g., IEC-6 intestinal cells) with a lentiviral construct that includes a Wnt-responsive promoter driving expression of the firefly luciferase gene.
SW480 colon carcinoma cells were transduced with a lentiviral vector expressing luciferase with a human Sp5 promoter consisting of a sequence of eight TCF/LEF binding sites. SW480 cells stably expressing the Sp5-Luc reporter gene and a hygromycin resistance gene were selected by treatment with 150 μg/mL of hygromycin for 7 days. These stably transduced SW480 cells were expanded in cell culture and used for all further screening activities. Each compound was dissolved in DMSO as a 10 mM stock and used to prepare compound source plates. Serial dilution (1:3, 10-point dose-response curves starting from 10 μM) and compound transfer was performed using the ECHO 550 (Labcyte, Sunnyvale, Calif.) into 384-well white solid bottom assay plates (Greiner Bio-One) with appropriate DMSO backfill for a final DMSO concentration of 0.1%. For Sp5-Luc reporter gene assays, the cells were plated at 4,000 cells/well in 384-well plates with medium containing 1% fetal bovine serum and incubated overnight at 37° C. and 5% CO2. Following incubation, 20 μl of BrightGlo luminescence reagent (Promega) was added to each well of the 384-well assay plates. The plates were placed on an orbital shaker for 2 min and then luminescence was quantified using the Envision (Perkin Elmer) plate reader. Readings were normalized to DMSO only treated cells, and normalized activities were utilized for EC50 calculations using the dose-response log (inhibitor) vs. response-variable slope (four parameters) nonlinear regression feature available in GraphPad Prism 5.0 (or Dotmatics). For EC50 of >10 μM, the percent inhibition at 10 μM is provided.

The structures appear in SMILES notation.

For `CN(C)CCNc1cc(F)cc(-c2nccc3[nH]c(-c4n[nH]c5ccc(-c6cnccn6)nc45)nc23)c1` [Compound 792, N^1-(3-Fluoro-5-(2-(5-(pyrazin-2-yl)-1H-pyrazolo[4,3-b]pyridin-3-yl)-1H-imidazo[4,5-c]pyridin-4-yl)phenyl)-N^2,N^2-dimethylethane-1,2-diamine], the EC50 was more than 10 µM and the inhibition at 10 µM was determined as 36.2%. For the compound `CS(=O)(=O)NCc1cc(F)cc(-c2nccc3[nH]c(-c4n[nH]c5ccc(-c6cncc(NC(=O)CC7CCNCC7)c6)nc45)nc23)c1` [Compound 769, N-(5-(3-(4-(3-Fluoro-5-(methylsulfonamidomethyl)phenyl)-1H-imidazo[4,5-c]pyridin-2-yl)-1H-pyrazolo[4,3-b]pyridin-5-yl)pyridin-3-yl)-2-(piperidin-4-yl)acetamide], the EC50 is more than 10 µM and the inhibition at 10 µM was found to be 9.8%. With `COc1cccc(-c2nccc3[nH]c(-c4n[nH]c5ccc(-c6cncc(NC(=O)CC(C)(C)C)c6)nc45)nc23)c1` [Compound 1006, N-(5-(3-(4-(3-methoxyphenyl)-1H-imidazo[4,5-c]pyridin-2-yl)-1H-pyrazolo [4,3-b]pyridin-5-yl)pyridin-3-yl)-3,3-dimethylbutanamide], the EC50 is more than 10 µM and the inhibition at 10 µM amounted to 16.6%. With `O=C(Nc1cncc(-c2ccc3[nH]nc(-c4nc5c(-c6ccncc6)nccc5[nH]4)c3n2)c1)C1CCCCC1` [Compound 135, N-(5-(3-(4-(pyridin-4-yl)-1H-imidazo[4,5-c]pyridin-2-yl)-1H-pyrazolo[4,3-b]pyridin-5-yl)pyridin-3-yl)cyclohexanecarboxamide], the EC50 was more than 10 µM and the inhibition at 10 µM was determined as 2.8%. Consider `CC(C)(C)CC(=O)Nc1cncc(-c2ccc3[nH]nc(-c4nc5c(-c6ccccc6F)nccc5[nH]4)c3n2)c1` [Compound 72, N-(5-(3-(4-(2-fluorophenyl)-1H-imidazo[4,5-c]pyridin-2-yl)-1H-pyrazolo [4,3-b]pyridin-5-yl)pyridin-3-yl)-3,3-dimethylbutanamide], for which the EC50 is more than 10 µM and the inhibition at 10 µM was determined as 8.1%. The corresponding values for `c1cc(-c2ccc3[nH]nc(-c4nc5c(-c6ccncc6)nccc5[nH]4)c3n2)ccn1` [Compound 130, 5-(pyridin-4-yl)-3-(4-(pyridin-4-yl)-1H-imidazo[4,5-c]pyridin-2-yl)-1H-pyrazolo[4,3-b]pyridine] are more than 10 µM and 7.5%.

`CN(C)CCNc1cc(F)cc(-c2nccc3[nH]c(-c4n[nH]c5ccc(-c6cncc(OCCN7CCCC7)c6)nc45)nc23)c1` [Compound 786, N^1-(3-Fluoro-5-(2-(5-(5-(2-(pyrrolidin-1-yl)ethoxy)pyridin-3-yl)-1H-pyrazolo[4,3-b]pyridin-3-yl)-1H-imidazo[4,5-c]pyridin-4-yl)-5phenyl)-N^2,N^2-dimethylethane-1,2-diamine] showed an EC50 of 4.41 µM. On to `O=C(Nc1cncc(-c2ccc3[nH]nc(-c4nc5cnccc5[nH]4)c3n2)c1)C1CCCCC1` [Compound 275, N-(5-(3-(1H-Imidazo[4,5-c]pyridin-2-yl)-1H-pyrazolo[4,3-b]pyridin-5-yl)pyridin-3-yl)cyclohexanecarboxamide], for which the EC50 was more than 10 µM and the inhibition at 10 µM came out at 0%.

On to `Cc1ccc(-c2nccc3[nH]c(-c4n[nH]c5ccc(C6=CCNCC6)nc45)nc23)s1` [Compound 730, 3-(4-(5-Methylthiophen-2-yl)-1H-imidazo[4,5-c]pyridin-2-yl)-5-(1,2,3,6-tetrahydropyridin-4-yl)-1H-pyrazolo[4,3-b]pyridine], for which the EC50 was more than 10 µM and the inhibition at 10 µM came out at 43.4%. Regarding `Cn1cc(-c2ccc3[nH]nc(-c4nc5c(-c6cc(F)cc(CNS(C)(=O)=O)c6)nccc5[nH]4)c3n2)cn1` [Compound 764, N-(3-Fluoro-5-(2-(5-(1-methyl-1H-pyrazol-4-yl)-1H-pyrazolo [4,3-b]pyridin-3-yl)-1H-imidazo[4,5-c]pyridin-4-yl)benzyl)methanesulfonamide], the response was half-maximal at 0.837 µM (EC50). Consider `CN1CCN(c2nccc3[nH]c(-c4n[nH]c5ccc(-c6cnccn6)nc45)nc23)CC1` [Compound 648, 3-(4-(4-Methylpiperazin-1-yl)-1H-imidazo[4,5-c]pyridin-2-yl)-5-(pyrazin-2-yl)-1H-pyrazolo[4,3-b]pyridine], for which the EC50 was more than 10 µM and the inhibition at 10 µM was found to be 1%. `Cc1ncc(-c2ccc3[nH]nc(-c4nc5c(-c6ccoc6)nccc5[nH]4)c3n2)n1C` [Compound 685, 5-(1,2-Dimethyl-1H-imidazol-5-yl)-3-(4-(furan-3-yl)-1H-imidazo[4,5-c]pyridin-2-yl)-1H-pyrazolo[4,3-b]pyridine]: a half-maximal response (EC50) required 0.211 µM. Still for that read-out and setting: as for `Cn1cc(-c2ccc3[nH]nc(-c4nc5c(-c6cccs6)nccc5[nH]4)c3n2)cn1` [Compound 700, 5-(1-Methyl-1H-pyrazol-4-yl)-3-(4-(thiophen-2-yl)-1H-imidazo[4,5-c]pyridin-2-yl)-1H-pyrazolo[4,3-b]pyridine], the figure is 0.456 µM.

In the case of `O=C(CC1CCNCC1)Nc1cncc(-c2ccc3[nH]nc(-c4nc5c(-c6ccsc6)nccc5[nH]4)c3n2)c1` [Compound 673, 2-(Piperidin-4-yl)-N-(5-(3-(4-(thiophen-3-yl)-1H-imidazo[4,5-c]pyridin-2-yl)-1H-pyrazolo[4,3-b]pyridin-5-yl)pyridin-3-yl)acetamide], the EC50 is more than 10 µM and the inhibition at 10 µM was 22.6%.

For `Cn1cc(-c2ccc3[nH]nc(-c4nc5c(-c6ccc7c(c6)OCO7)nccc5[nH]4)c3n2)c(CO)n1` [Compound 1151, (4-(3-(4-(Benzo[d][1,3]dioxol-5-yl)-1H-imidazo[4,5-c]pyridin-2-yl)-1H-pyrazolo [4,3-b]pyridin-5-yl)-1-methyl-1H-pyrazol-3-yl)methanol], the EC50 was more than 10 µM and the inhibition at 10 µM is 33.9%. For `Cn1cc(-c2ccc3[nH]nc(-c4nc5c(N6CCCCC6)nccc5[nH]4)c3n2)c(CO)n1` [Compound 1133, (1-Methyl-4-(3-(4-(piperidin-1-yl)-1H-imidazo[4,5-c]pyridin-2-yl)-1H-pyrazolo [4,3-b]pyridin-5-yl)-1H-pyrazol-3-yl)methanol], the EC50 is more than 10 µM and the inhibition at 10 µM stood at 49.6%. The compound `COc1cncc(-c2ccc3[nH]nc(-c4nc5c(-c6ccoc6)nccc5[nH]4)c3n2)c1` [Compound 692, 3-(4-(Furan-3-yl)-1H-imidazo[4,5-c]pyridin-2-yl)-5-(5-methoxypyridin-3-yl)-1H-pyrazolo[4,3-b]pyridine] yielded an EC50 of 0.745 µM.

With `Oc1cncc(-c2ccc3[nH]nc(-c4nc5cnccc5[nH]4)c3n2)c1` [Compound 661, 5-(3-(1H-Imidazo[4,5-c]pyridin-2-yl)-1H-pyrazolo[4,3-b]pyridin-5-yl) pyridin-3-ol], the EC50 is more than 10 µM and the inhibition at 10 µM stood at 10.7%. The corresponding values for `Cn1cc(-c2ccc3[nH]nc(-c4nc5c(-c6ccc(F)cc6)nccc5[nH]4)c3n2)c(CO)n1` [Compound 1128, (4-(3-(4-(4-Fluorophenyl)-1H-imidazo[4,5-c]pyridin-2-yl)-1H-pyrazolo[4,3-b]pyridin-5-yl)-1-methyl-1H-pyrazol-3-yl)methanol] are more than 10 µM and 19.6%.
